Values joined by “and” are separate entries in the source; they are usually repeats but may differ in a detail not shown here. Equal values may be shown once. No end group written: not given here.
Columns and labels:
[1] = system: male Duncan-Hartley guinea pigs; assay: In vivo efficiency in guinea pig spontaneous knee osteoarthritis, intra-articular injection, histological analysis; conditions: for cartilage thickness / sum of the scores representing the degradation of several structures in the joint (total scoring of degradation parameters): five month after intra-articular injection of 50 μl per knee; for cartilage thickness: * p<0.05; for sum of the scores representing the degradation of several structures in the joint (total scoring of degradation parameters): peptide 10^−7 M, vs control and hyaluronic acid alone
Procedure: Peptide of the invention (corresponding to SEQ ID NO: 4) was dissolved at 2.5 mg/ml in water for injection (CDM Lavoisier) to make a stock solution conserved at −20° C. The syringe was prepared by aspiration of 50 μl of peptide work solution prepared just before use at 10^−7 M (other concentrations are tested) in NaCl 0.9% and kept on ice until use.
The study was performed on male Duncan-Hartley guinea pigs (Harlan), whose particularity is to be affected with age of spontaneous and progressive degeneration of the knee that closely resembles knee osteoarthritis (OA) in humans. Seven 5-month-old animals (weighing 879 g.+/−58.1) were injected per group. Animals were treated in accordance with institutional animal care guidelines. Animals were anesthetized with an anesthesia module (Minerva) with a rapid induction device (4% isoflurane) and anesthesia was maintained using a specific device mask in guinea coaxial (2.5% isoflurane). 50 μl of the peptide of the invention or control—salt solution or Hyalgan® (10 mg/ml solution of MW 500-730 kDa hyaluronic—Laboratoire Expanscience, available in the market)—were injected on each hind legs of the animal into the joint space from the lateral side using a 29 G needle. This was followed by passive knee joint movements to facilitate the intra-articular distribution of the solution.
Five month after injection, the two knee joints from each animal were fixed for 36 to 48 hours in 10% buffered formalin then kept in 70% ethanol and followed by decalcification in 15% EDTA in phosphate buffer. Paraffin sections (3-4 μm) of the central region of the joint were stained with haematoxylin and eosin for histological analyses of cartilage structure, namely: loss of cartilage matrix, cellular abnormalities, appearance of articular cartilage mineralization front, formation of osteophytes and synovial membrane (microscopy: Nikon 80i). A semi-quantitative modified Mankin histological grading system was used to evaluate OA severity (Kraus et al., The OARSI histopathology initiative recommendations for histological assessments of osteoarthritis in the Guinea Pig. Osteoarthritis Cartilage, 2010 (18 S3) S35-S52). The articular cartilage area was analyzed quantitatively by immunohistochemistry (Pastoureau et al., Cartilage, bone and synovial histomorphometry in animal models of osteoarthritis. Osteoarthritis Cartilage. 2010 October; 18 Suppl 3:S106-12). Sections of guinea pig knees were stained with monoclonal antibody (monoclonal anti-chicken mouse collagen II, 6B3 clone—reference MAB887/250, Millipore). The measurement of the total area of articular cartilage was performed with Color deconvolution H DAB and Siox and the measurement of joint height by ImageJ (“Fit Ellipse” module). Statistical analyzes of scoring and quantification results were performed using a Kruskal-Wallis test followed by Dunn's test using PRISM software.

[2] = Raman scattering measurements of peptide conformation (stability of the peptide); format: physicochemical; conditions: in water, peptide 0.9 mM, with or without HA 1%
Procedure: Peptide alone, at a concentration of 0.9 mM (2.5 mg/ml), was dissolved in a Millipore filter treated water. Peptide+HA solution consists of peptide dissolved at 0.9 mM in a solution of HA (1.8 MDa) at 1% (10 mg/ml) in water.
Samples were placed in a suprasil quartz cell (5 mm path length) and excited by the 488 nm line of an Ar+ laser (Spectra Physics, CA, USA) with a ˜200 mW power at the sample. Scattered light at right angle was analyzed on a Jobin-Yvon T64000 (HORIBA Jobin-Yvon, France) in a single spectrograph configuration with a 1200 grooves per mm holographic grating and a holographic notch filter. Stokes Raman data were collected by means of a liquid nitrogen cooled CCD detection system (Spectrum One, Jobin-Yvon, France). The effective spectral slit width was set to ˜5 cm^−1. Each recorded spectrum corresponds to a total acquisition time of 1200 s. Buffer subtraction and smoothing of the observed Raman spectra could be performed using the GRAMS/AI package (Thermoage Galactic, MA, USA). The final presentation of these spectra was performed by means of SigmaPlot package (Systat Software Inc., CA, USA).

[3] = listed as peptide of the invention
[4] = five month after intra-articular injection, medial tibial surface of the knee, compared with sham (and HA)

With GTSDRVYEKLAGSKNFFWKTFTSS [SEQ ID NO: 4] the cartilage thickness [1] was “increased cartilage thickness”, the cartilage thickness [1, 3] was “increase in the thickness of the cartilage” and the “sum of the scores representing the degradation of several structures in the joint (total scoring of degradation parameters)” value [1] was “significantly decreased degradation of cartilage structure”. The “sum of the scores representing the degradation of several structures in the joint (total scoring of degradation parameters)” value [1, 3] was “lowest”, the osteophytes scoring ([1]; five month after intra-articular injection, ** p<0.001) was “decreased osteophytes scoring” and the “type II Collagen content (staining)” value ([1]; five month after intra-articular injection, immunohistochemistry, compared with sham (and HA)) was “greater synthesis of type II collagen”. For the same sequence, the “cartilage structure scoring (cartilage structural damage)” value [1, 4] was “lowest severity”, the “proteoglycan content (proteoglycan loss)” value [1, 4] was “lowest severity” and the “secondary conformation / structure stability by Raman spectra” value [2] was “unstable structure in water”. For the same sequence, the “secondary conformation / structure stability by Raman spectra” value ([2]; listed as peptide alone) was “Several (4) secondary conformations and 4 major bands”.
